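How tested: cells in 96-well plates exposed to compound for 48 hours at five concentrations. Here, GI50 denotes the concentration required for 50% inhibition of growth.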 Calls of active or inactive are those of the source. Rule as the data show it: active = GI50 up to about 1.1 µM and inactive = higher.
Columns and labels:
Test in all cases: DTP human tumour cell line panel, 48 h
RXF 393 = system: RXF 393
SNB-75 = system: SNB-75
SK-MEL-5 = system: SK-MEL-5
NCI-H226 = system: NCI-H226
UACC-62 = system: UACC-62
SF-539 = system: SF-539
HOP-92 = system: HOP-92
HCT-116 = system: HCT-116
M14 = system: M14
U-251 = system: U-251
A549 = system: A549
786-0 = system: 786-0
A498 = system: A498
OVCAR-3 = system: OVCAR-3
NCI-H460 = system: NCI-H460
NCI-H23 = system: NCI-H23

Measured: GI50

COc1cc(/C=C2/C(=O)N(C(=O)OCc3ccccc3)C(Cc3cc(OC)c(OC)c(C)c3OC)C(=O)N2Cc2ccccc2)c(OC)c(C)c1OC (configuration not stated)
inactive: RXF 393 > 100 µM | SNB-75 > 100 µM | SK-MEL-5 19.4 µM | NCI-H226 2 µM | UACC-62 > 100 µM | SF-539 > 100 µM | HOP-92 2.64 µM | HCT-116 29.3 µM | M14 > 100 µM | U-251 33.1 µM | A549 > 100 µM | 786-0 > 100 µM | A498 88.7 µM | OVCAR-3 48.8 µM | NCI-H460 3.52 µM | NCI-H23 > 100 µM

CS/C(=N/C(=O)c1ccccc1)SCCS/C(=N\C(=O)c1ccccc1)SC
inactive: RXF 393 73.6 µM | SNB-75 33.8 µM | SK-MEL-5 > 100 µM | NCI-H226 > 100 µM | UACC-62 > 100 µM | SF-539 65.5 µM | HOP-92 20 µM | HCT-116 > 100 µM | M14 > 100 µM | U-251 > 100 µM | A549 > 100 µM | 786-0 > 100 µM | A498 > 100 µM | OVCAR-3 68.5 µM | NCI-H460 > 100 µM | NCI-H23 > 100 µM

COc1cc2c(c(OC)c1OC)-c1[nH]ncc1CC2
inactive: SNB-75 > 100 µM | SK-MEL-5 > 100 µM | NCI-H226 > 100 µM | UACC-62 > 100 µM | SF-539 > 100 µM | HOP-92 > 100 µM | HCT-116 > 100 µM | M14 > 100 µM | U-251 > 100 µM | A549 > 100 µM | 786-0 > 100 µM | A498 > 100 µM | OVCAR-3 > 100 µM | NCI-H460 > 100 µM | NCI-H23 > 100 µM

Cc1ccc(Sc2cc([N+](=O)[O-])cc(Sc3ccc(C)cc3)c2Sc2ccc(C)cc2)cc1
inactive: RXF 393 36 µM | SNB-75 53.5 µM | SK-MEL-5 > 100 µM | NCI-H226 > 100 µM | UACC-62 > 100 µM | SF-539 > 100 µM | HCT-116 > 100 µM | M14 > 100 µM | U-251 46.5 µM | A549 > 100 µM | 786-0 51.6 µM | A498 > 100 µM | OVCAR-3 > 100 µM | NCI-H460 > 100 µM

COC(=O)C1=C(SC)SC2(C(=O)OC)C3C=C(C)C4C(N13)C42C(=O)OC (configuration not stated)
inactive: RXF 393 > 100 µM | SNB-75 > 100 µM | SK-MEL-5 83.6 µM | NCI-H226 > 100 µM | UACC-62 > 100 µM | SF-539 > 100 µM | HCT-116 > 100 µM | M14 > 100 µM | U-251 > 100 µM | A549 > 100 µM | 786-0 > 100 µM | OVCAR-3 > 100 µM | NCI-H460 > 100 µM | NCI-H23 > 100 µM

COC1=CC(O)(CC(N)=O)c2ccccc2C1=O (configuration not stated)
inactive: RXF 393 > 100 µM | SNB-75 > 100 µM | SK-MEL-5 > 100 µM | NCI-H226 > 100 µM | UACC-62 > 100 µM | HOP-92 > 100 µM | HCT-116 > 100 µM | M14 > 100 µM | U-251 > 100 µM | A549 > 100 µM | 786-0 > 100 µM | A498 > 100 µM | OVCAR-3 > 100 µM | NCI-H460 > 100 µM

C=C(CCCO)[C@@H]1CC[C@@](C)(O)[C@H]1C
inactive: RXF 393 > 100 µM | SNB-75 33.1 µM | SK-MEL-5 > 100 µM | NCI-H226 > 100 µM | UACC-62 > 100 µM | SF-539 > 100 µM | HCT-116 > 100 µM | U-251 > 100 µM | A549 > 100 µM | 786-0 > 100 µM | OVCAR-3 > 100 µM | NCI-H460 > 100 µM | NCI-H23 > 100 µM

COc1cc(/C=C2\C(=O)N(C(=O)Cc3ccccc3)N=C2C)cc(OC)c1OC
inactive: SNB-75 > 100 µM | SK-MEL-5 > 100 µM | NCI-H226 > 100 µM | SF-539 > 100 µM | HCT-116 > 100 µM | M14 > 100 µM | A549 > 100 µM | 786-0 > 100 µM | OVCAR-3 > 100 µM | NCI-H460 > 100 µM | NCI-H23 > 100 µM

O=C(CCC(=O)Nc1ccc(Cl)c(Cl)c1)CC(=O)c1ccc(Br)cc1
inactive: RXF 393 > 100 µM | SNB-75 61.7 µM | SK-MEL-5 > 100 µM | NCI-H226 > 100 µM | UACC-62 36.2 µM | SF-539 > 100 µM | HOP-92 > 100 µM | HCT-116 > 100 µM | M14 > 100 µM | U-251 > 100 µM | A549 > 100 µM | 786-0 > 100 µM | A498 > 100 µM | OVCAR-3 > 100 µM | NCI-H23 > 100 µM

CC(=O)NC(CCCCNC(=O)OCc1ccccc1)C(=O)NCc1ccccc1 (configuration not stated)
inactive: RXF 393 > 100 µM | SNB-75 31.7 µM | SK-MEL-5 > 100 µM | NCI-H226 > 100 µM | UACC-62 > 100 µM | SF-539 > 100 µM | HOP-92 > 100 µM | HCT-116 > 100 µM | M14 > 100 µM | U-251 > 100 µM | A549 > 100 µM | 786-0 > 100 µM | A498 > 100 µM | OVCAR-3 > 100 µM | NCI-H460 > 100 µM | NCI-H23 > 100 µM

COc1cc2c(cc1OC)C(C#N)(Cc1ccccc1)N(C(=O)c1ccccc1)C=C2 (configuration not stated)
inactive: RXF 393 24.4 µM | SNB-75 70.6 µM | SK-MEL-5 26 µM | NCI-H226 63 µM | UACC-62 31.3 µM | SF-539 > 100 µM | HOP-92 58.2 µM | HCT-116 50.9 µM | M14 > 100 µM | U-251 > 100 µM | 786-0 > 100 µM | OVCAR-3 > 100 µM | NCI-H460 46.3 µM | NCI-H23 75.7 µM

O=C1O/C(=C(/c2ccc(Cl)cc2)c2nc3ccccc3[nH]2)C(O)=C1c1ccc(Cl)cc1
inactive: RXF 393 2.26 µM | SNB-75 2.69 µM | NCI-H226 2.1 µM | UACC-62 2.21 µM | SF-539 2.65 µM | HOP-92 1.32 µM | HCT-116 1.93 µM | M14 4.06 µM | U-251 2.56 µM | A549 2.4 µM | 786-0 3.36 µM | A498 2.47 µM | OVCAR-3 2.38 µM | NCI-H460 2.73 µM | NCI-H23 1.38 µM

O=C(/C=C/c1ccccc1F)C(c1ccccc1)c1ccccc1
inactive: SNB-75 4.76 µM | NCI-H226 11.4 µM | UACC-62 2.08 µM | SF-539 2.2 µM | HOP-92 2 µM | HCT-116 2.24 µM | M14 2.62 µM | U-251 3.74 µM | A549 3.76 µM | 786-0 2.42 µM | OVCAR-3 3.97 µM | NCI-H23 4.22 µM

O=C(Cc1nc2ccccc2o1)C(=O)Nc1ccc(Cl)cc1Cl
inactive: RXF 393 > 100 µM | SNB-75 49.2 µM | NCI-H226 > 100 µM | UACC-62 > 100 µM | SF-539 > 100 µM | HOP-92 > 100 µM | HCT-116 > 100 µM | M14 > 100 µM | U-251 > 100 µM | A549 > 100 µM | 786-0 > 100 µM | A498 > 100 µM | OVCAR-3 > 100 µM | NCI-H460 > 100 µM | NCI-H23 > 100 µM

Nc1ccc(C(=O)NN2C(=O)C(Cl)C2c2ccccc2)cc1 (configuration not stated)
inactive: SNB-75 > 100 µM | SK-MEL-5 > 100 µM | NCI-H226 > 100 µM | UACC-62 > 100 µM | SF-539 > 100 µM | HOP-92 > 100 µM | HCT-116 > 100 µM | M14 > 100 µM | U-251 > 100 µM | A549 > 100 µM | 786-0 > 100 µM | A498 > 100 µM | OVCAR-3 > 100 µM | NCI-H460 > 100 µM | NCI-H23 > 100 µM

O=C(c1ccccc1)[C@@H]1C[C@H](Sc2ccccc2)c2cc(Cl)ccc2N1
inactive: RXF 393 6.64 µM | SNB-75 18.8 µM | SK-MEL-5 11.7 µM | NCI-H226 25.6 µM | UACC-62 19.5 µM | SF-539 16.9 µM | HCT-116 23.1 µM | M14 28.2 µM | U-251 21.2 µM | A549 28.5 µM | 786-0 18.2 µM | A498 11.5 µM | OVCAR-3 23 µM | NCI-H460 26.5 µM | NCI-H23 20.2 µM

CCOC(=O)Nc1ccc(S(=O)(=O)I)cc1.CCOC(=O)Nc1ccc(S(=O)(=O)I)cc1.CNC(=O)N=O.NC(=O)OCCCl
inactive: SNB-75 21.9 µM | SK-MEL-5 > 100 µM | UACC-62 73.6 µM | SF-539 > 100 µM | HOP-92 40.5 µM | HCT-116 > 100 µM | M14 > 100 µM | U-251 > 100 µM | A549 > 100 µM | 786-0 > 100 µM | A498 > 100 µM | NCI-H460 > 100 µM | NCI-H23 > 100 µM

CN(C)c1ccc(N=O)c(O)c1.CN(C)c1ccc(N=O)c(O)c1.[SiH4]
inactive: SNB-75 12.7 µM | SK-MEL-5 11.1 µM | NCI-H226 16.4 µM | UACC-62 8.49 µM | SF-539 14.2 µM | HOP-92 3.82 µM | HCT-116 6.5 µM | M14 11.7 µM | U-251 8.09 µM | A549 12.4 µM | 786-0 20.8 µM | A498 21.3 µM | OVCAR-3 3.71 µM | NCI-H23 10.1 µM

Reference: ChEMBL document CHEMBL1201862, “PubChem BioAssay data set” (2004)
